The term inhibition denotes the drop in the measured response relative to a control, in per cent.

These results are taken from patent US4465851A, “Guanidinocyclohexanecarboxylic acid derivatives” (Nippon Chemiphar Co., Ltd., priority 1981, dated 1984).

pIC50: −log10 of the molar value. Structures can show the parent of a compound that is named as a salt.

In one experiment the target is Chymotrypsin (Bos taurus, UniProt P00766). The experiment can be described thus: Inhibition of chymotrypsin (ATE hydrolysis). The class given is biochemical. Conditions: 15 mM ATE, 30 minutes, 37° C., pH 8.0; read-out: Concentration for 50% inhibition (IC50), chymotrypsin. The procedure:
(§1) Inhibitory effects on the TAMe(N^α -tosyl-L-arginine methyl ester) hydrolytic activity of trypsin, plasmin, plasma kallikrein and thrombin were estimated by Hesterin's method modified by Roberts. Inhibition of the BAEe(N^α -benzoyl-L-arginine ethyl ester) hydrolytic activity of pancreas kallikrein was determined by Hesterin's method after incubation at 37° C. for 30 minutes in a 0.1M borate buffer, pH 8.0. Inhibitory effects on urokinase were determined by the chromotropic acid method after incubation of 60 iu of urokinase with 10 mM AGLMe(acetylglycyl-L-lysine methyl ester) at 37° C. for 30 minutes in a 0.06M phosphate buffer, pH 7.5, containing 0.09M NaCl. Inhibition of chymotrypsin was determined by Hesterin's method after incubation with 15 mM ATE (N^α -acetyl-L-tyrosine ethyl ester) for 30 minutes at 37° C. in a 0.1M borate buffer, pH 8.0.

The target in a further experiment is Pancreas kallikrein (Sus scrofa, UniProt P00752). Put plainly: Inhibition of pancreas kallikrein (BAEe hydrolysis). The class given is biochemical. The note with it: BAEe substrate, 37° C., 30 minutes, pH 8.0; read-out: Concentration for 50% inhibition (IC50), pancreas kallikrein. The procedure: as §1
Pancreas kallikrein, sequence (P00752 15-246 limits assumed): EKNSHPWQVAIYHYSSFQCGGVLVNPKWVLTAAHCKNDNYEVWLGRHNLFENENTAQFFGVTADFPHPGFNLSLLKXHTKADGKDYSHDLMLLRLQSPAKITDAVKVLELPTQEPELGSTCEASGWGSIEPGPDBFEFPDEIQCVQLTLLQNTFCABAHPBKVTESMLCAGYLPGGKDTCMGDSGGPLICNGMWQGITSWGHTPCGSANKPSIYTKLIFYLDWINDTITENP
The target of a further experiment is Urokinase (Homo sapiens, UniProt P00749). The experiment can be described thus: Inhibition of urokinase (AGLMe, chromotropic acid method). The class given is biochemical. The note with it: 60 iu urokinase, 10 mM AGLMe, 37° C., 30 minutes, pH 7.5; read-out: Concentration for 50% inhibition (IC50), urokinase. The procedure:
as §1

The subject of experiment [1] is ileum of each sensitized guinea pig. The experiment can be described thus: Schultz-Dale reaction. Conditions: Cavia porcellus, read-out: Inhibition of contraction (Schultz-Dale reaction); for inhibition at 25 µg/mL: final conc. 25 μg/ml; for inhibition at 50 µg/mL: final conc. 50 μg/ml. The procedure:
Male guinea pigs were sensitized with bovine serum albumin by Freund's complete adjuvant method. After a lapse of 10 days, the animals were sensitized once more as described above. After two more weeks, an ileum of each sensitized guinea pig was removed and used for experiment. The ileum was equipped in a magnus tube containing each test sample, and 500 μg of bovine serum albumin was added. The contraction of the ileum was determined.

The subject of experiment [2] is guinea pigs ilea. The experiment can be described thus: Anti-acetylcholine action. Set-up: species or system guinea pig. The note with it: Cavia porcellus, read-out: Anti-acetylcholine effect inhibition of contraction; for inhibition at 25 µg/mL: final conc. 25 μg/ml; for inhibition at 50 µg/mL: final conc. 50 μg/ml. An excerpt: (§2) Anti-acetylcholine and anti-histamine effects of the present compounds were examined using guinea pigs ilea by the usual method.

Experiment [3] has as its system guinea pigs ilea. The experiment can be described thus: Anti-histamine action. The arrangement: species or system guinea pig. The note with it: Cavia porcellus, read-out: Anti-histamine effect inhibition of contraction; for inhibition at 25 µg/mL: final conc. 25 μg/ml; for inhibition at 50 µg/mL: final conc. 50 μg/ml.
Source text: as §2

A further experiment concerns the target T1, Trypsin (Bos taurus, UniProt P00760).
T1 sequence (P00760 24-246): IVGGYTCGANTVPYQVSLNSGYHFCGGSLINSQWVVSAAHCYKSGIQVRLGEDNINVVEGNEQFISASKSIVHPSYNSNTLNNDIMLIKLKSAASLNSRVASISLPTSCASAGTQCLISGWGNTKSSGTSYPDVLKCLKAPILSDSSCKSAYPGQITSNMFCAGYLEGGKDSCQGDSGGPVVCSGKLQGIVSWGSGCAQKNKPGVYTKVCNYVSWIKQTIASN
Put plainly: Inhibition of trypsin (TAMe hydrolysis). The class given is biochemical. Conditions: TAMe substrate; read-out: Concentration for 50% inhibition (IC50), trypsin. The procedure:
as §1

In the next experiment the target is Plasma kallikrein (Homo sapiens, UniProt P03952). Put plainly: Inhibition of plasma kallikrein (TAMe hydrolysis). It counts as biochemical. Conditions: TAMe substrate; read-out: Concentration for 50% inhibition (IC50), plasma kallikrein. The procedure:
as §1

The target of the next experiment is Thrombin (Homo sapiens, UniProt P00734). Put plainly: Inhibition of thrombin (TAMe hydrolysis). It counts as biochemical. Conditions: TAMe substrate; read-out: Concentration for 50% inhibition (IC50), thrombin.
Experiment [4] relates to Mast cells. The experiment can be described thus: Effects on histamine release from mast cells induced by compound 48/80. The class given is cell-based. The note with it: Mast cell; 10 μg/ml test compound; compound 48/80 induced; read-out: Inhibition of histamine release.
Protocol: After incubation for 20 minutes at 37° C., the suspension was cooled to 4° C., and released histamine was determined as described by Shore et al. All samples examined were recognized to cause no disturbance in the fluorometric assay.
The target in another experiment is Plasmin (Homo sapiens, UniProt P00747). The experiment can be described thus: Inhibition of plasmin (TAMe hydrolysis). It counts as biochemical. The note with it: TAMe substrate; read-out: Concentration for 50% inhibition (IC50), plasmin. The procedure: as §1
Plasmin, sequence (P00747 97-580 limits assumed, species assumed): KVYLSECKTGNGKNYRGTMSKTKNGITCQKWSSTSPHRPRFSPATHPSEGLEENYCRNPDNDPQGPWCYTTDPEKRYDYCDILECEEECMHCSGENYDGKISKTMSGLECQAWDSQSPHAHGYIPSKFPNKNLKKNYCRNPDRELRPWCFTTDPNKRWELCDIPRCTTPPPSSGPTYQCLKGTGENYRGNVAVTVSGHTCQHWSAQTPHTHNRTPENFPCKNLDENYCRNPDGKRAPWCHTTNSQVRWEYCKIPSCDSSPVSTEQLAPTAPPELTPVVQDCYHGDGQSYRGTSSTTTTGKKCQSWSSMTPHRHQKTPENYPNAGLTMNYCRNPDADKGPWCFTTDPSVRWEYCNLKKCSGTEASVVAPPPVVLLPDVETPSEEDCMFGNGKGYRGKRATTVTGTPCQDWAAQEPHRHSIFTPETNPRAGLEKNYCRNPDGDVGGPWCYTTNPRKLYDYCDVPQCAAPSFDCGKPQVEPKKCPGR
The subject of experiment [5] is Mast cells. Conditions: Life Sciences 10, 805-812 (1971); Internal Medicine 42(6), 933 (1978); cited from earlier work.

Plasma kallikrein, sequence (P03952 20-390 limits assumed, species assumed): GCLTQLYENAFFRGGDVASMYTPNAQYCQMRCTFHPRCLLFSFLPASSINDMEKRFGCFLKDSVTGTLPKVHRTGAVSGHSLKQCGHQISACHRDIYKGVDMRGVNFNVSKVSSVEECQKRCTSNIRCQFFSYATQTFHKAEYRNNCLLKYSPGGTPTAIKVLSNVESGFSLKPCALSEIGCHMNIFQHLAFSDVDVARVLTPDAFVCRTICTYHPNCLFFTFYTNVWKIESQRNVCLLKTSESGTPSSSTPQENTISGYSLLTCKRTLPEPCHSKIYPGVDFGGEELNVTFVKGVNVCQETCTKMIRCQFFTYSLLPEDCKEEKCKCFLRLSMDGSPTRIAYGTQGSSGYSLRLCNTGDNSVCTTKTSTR

For `Cc1ccc(OC(=O)[C@H]2CC[C@H](CNC(=N)N)CC2)cc1` [Compound 3, 4'-Methylphenyl trans-4-guanidinomethylcyclohexanecarboxylate hydrochloride], the pIC50 on Chymotrypsin is 4.15; on Pancreas kallikrein, 3.49; at Urokinase it was 3.59. Also, the inhibition at 25 µg/mL in experiment [1] is 83.3%; in the experiment on guinea pigs ilea [2] it was 100%; with guinea pigs ilea [3], 98%. Further, the inhibition at 50 µg/mL (in [1]; in the experiment on guinea pigs ilea [2]; in the experiment with guinea pigs ilea [3]) was 100% throughout.
As for `N=C(N)NC[C@H]1CC[C@H](C(=O)Oc2ccccc2Cl)CC1` [Compound 5, 2'-Chlorophenyl trans-4-guanidinomethylcyclohexanecarboxylate hydrochloride], the pIC50 was 3.41 at Trypsin; 4.92 on Chymotrypsin; 4.05 on Pancreas kallikrein; 3.52 at Plasma kallikrein; 3.80 at Thrombin; 3.80 at Urokinase.
Take `N=C(N)NC[C@H]1CC[C@H](C(=O)Oc2ccc(Br)cc2)CC1` [Compound 6, 4'-Bromophenyl trans-4-guanidinomethylcyclohexanecarboxylate hydrochloride]: the values for the pIC50 on Trypsin, on Pancreas kallikrein and on Thrombin were 3.59, 3.82 and 3.74, respectively.
As for `N=C(N)NC[C@H]1CC[C@H](C(=O)Oc2ccc(I)cc2)CC1` [Compound 7, 4'-Iodophenyl trans-4-guanidinomethylcyclohexanecarboxylate hydrochloride], the inhibition at 10 µg/mL with Mast cells [4] worked out at 18.4%.
For the compound `N=C(N)NC[C@H]1CC[C@H](C(=O)Oc2ccc(Cl)cc2)CC1` [Compound 10, 4'-Chlorophenyl trans-4-guanidinomethylcyclohexanecarboxylate hydrochloride], the inhibition at 25 µg/mL was 100% in experiment [1], 89.8% with guinea pigs ilea [2] and 100% in the experiment with guinea pigs ilea [3]. Also, the inhibition at 50 µg/mL (in experiment [1]; in the experiment on guinea pigs ilea [2]; with guinea pigs ilea [3]) was 100% in each case.
As to `Cc1ccc(C(C)C)c(OC(=O)[C@H]2CC[C@H](CNC(=N)N)CC2)c1` [Compound 13, 2'-iso-Propyl-5'-methylphenyl trans-4-guanidinomethylcyclohexanecarboxylatehydrochloride], the figures for the pIC50 at Plasmin, at Pancreas kallikrein and at Urokinase were 3.40, 3.40 and 4.52, respectively.
With `Cc1cc(OC(=O)[C@H]2CC[C@H](CNC(=N)N)CC2)c(C(C)C)cc1Cl` [Compound 14, 2'-iso-Propyl-4'-chloro-5'-methylphenyl trans-4-guanidinomethylcyclohexanecarboxylate hydrochloride], the pIC50 is 3.72 on Trypsin; 4.00 at Chymotrypsin; 3.40 on Plasmin; 3.89 at Pancreas kallikrein; 3.62 on Thrombin. The inhibition at 10 µg/mL in the experiment with Mast cells [4] worked out at 38.8%.
`N=C(N)NC[C@H]1CC[C@H](C(=O)Oc2ccc([N+](=O)[O-])cc2)CC1` [Compound 15, 4'-Nitrophenyl trans-4-guanidinomethylcyclohexanecarboxylate hydrochloride]: the pIC50 at Trypsin was 4.05; at Chymotrypsin it was 5.55; at Pancreas kallikrein, 4.60; at Plasma kallikrein it was 3.52; at Thrombin, 4.02; at Urokinase, 4.51.
Take `N#Cc1ccccc1OC(=O)[C@H]1CC[C@H](CNC(=N)N)CC1` [Compound 21, 2'-Cyanophenyl trans-4-guanidinomethylcyclohexanecarboxylate hydrochloride]: the figures for the pIC50 at Plasmin, on Pancreas kallikrein and at Urokinase were 3.70, 4.52 and 3.96, respectively.
`N=C(N)NC[C@H]1CC[C@H](C(=O)Oc2ccc3c(c2)CCC3)CC1` [Compound 23, 5'-Indanyl trans-4-guanidinomethylcyclohexanecarboxylate hydrochloride]: in the experiment with Mast cells [4], the inhibition at 10 µg/mL was 12.7%.
As for `N=C(N)NC[C@H]1CC[C@H](C(=O)Oc2ccc3ccc(=O)oc3c2)CC1` [Compound 24, 7'-(2'-Oxochromenyl)trans-4-guanidinomethylcyclohexanecarboxylate hydrochloride], the pIC50 on Chymotrypsin is 5.22; on Pancreas kallikrein it was 4.70; on Thrombin, 3.64; on Urokinase, 4.30.
`N=C(N)NC[C@H]1CC[C@H](C(=O)Oc2ccc(Cl)c3ccccc23)CC1` [Compound 28, 4'-Chloronaphthyl trans-4-guanidinomethylcyclohexanecarboxylate hydrochloride]: the inhibition at 10 µg/mL in the experiment with Mast cells [4] was found to be 60.9%. For the same compound, the inhibition at 25 µg/mL is 80% in experiment [1], 68% with guinea pigs ilea [2] and 99.7% in the experiment on guinea pigs ilea [3]. Also, the inhibition at 50 µg/mL amounted to 100% in experiment [1], 76% in the experiment on guinea pigs ilea [2] and 100% in the experiment on guinea pigs ilea [3].
On to `N=C(N)NC[C@H]1CC[C@H](C(=O)Oc2ccc3ccccc3c2[N+](=O)[O-])CC1` [Compound 29, 2'-(1'-Nitro)naphthyl trans-4-guanidinomethylcyclohexanecarboxylate hydrochloride], for which, in the experiment on Mast cells [4], the inhibition at 10 µg/mL came to 20.6%. In the experiment on guinea pigs ilea [2], the inhibition at 25 µg/mL was found to be 52% and the inhibition at 50 µg/mL amounted to 80%.
Take `N=C(N)NC[C@H]1CC[C@H](C(=O)Oc2ccccc2)CC1` [Compound A, Phenyl trans4-guanidinomethylcyclohexanecarboxylate hydrochloride, reference compound]: in the experiment with Mast cells [4], the inhibition at 10 µg/mL came out at 5%. In addition, in [1], the inhibition at 25 µg/mL was 0% and the inhibition at 50 µg/mL was 0%. In the experiment with guinea pigs ilea [3], the inhibition at 25 µg/mL was determined as 100% and the inhibition at 50 µg/mL was found to be 100%.
For `O=C(O)c1cc(=O)c2c(OCC(O)COc3cccc4oc(C(=O)O)cc(=O)c34)cccc2o1` [DSCG, Disodium cromoglycate, reference compound], the inhibition at 10 µg/mL in the experiment with Mast cells [4] was found to be 10%. In the experiment with guinea pigs ilea [3], the inhibition at 25 µg/mL is 0% and the inhibition at 50 µg/mL was 0%. The “inhibitory effects on histamine release from mast cells” value with Mast cells [5] is “has inhibitory effects on histamine release from mast cells”.
